Here are results for three compounds from publication PMC8781304, “Arene-Ruthenium(II) Complexes with Carbothiamidopyrazoles as a Potential Alternative for Antibiotic Resistance in Human” (Molecules, 2022).

Where “and” joins values, the source holds several entries; their conditions need not be identical. Equal values may be shown once.

The data set has as its system human foreskin fibroblast HFF-1 (ATCC-SCRC-1041). The data set is described as follows: Cytotoxicity, MTT reduction assay. Format: cell-based. Particulars: HFF-1, MTT; for IC50: 24 h, tested 3.9–500 μM. The method, then:
The cytotoxicity of arene-ruthenium(II) complexes 3a–3d was determined using the MTT (3-(4,5-dimethylthiazol-2-yl)-2,5-diphenyltetrazolium bromide; Sigma, St. Louis, MO, USA) reduction assay and a human foreskin fibroblast HFF-1 culture (ATCC-SCRC-1041) (LGC Standards Sp. z o.o., Poland) at a final concentration range of 3.9–500 µM. The HFF-1 cells were cultured in Dulbecco’s Modified Eagle’s Medium (DMEM; Sigma, St. Louis, MO, USA) with 15% fetal bovine serum (FBS; BioWest, Nuaillé, France) and penicillin/streptomycin (100 × stock solution; BioWest, Nuaillé, France), 1 × 10^6 cell/mL (100 µL/well) in 96-well tissue culture plates (Nunc, Roskilde, Denmark) for 24 h at 37 °C/5% CO2. The cells were then exposed to arene-ruthenium(II) complexes for 24 h at 37 °C. The control (untreated) cells were exposed to culture medium alone or culture medium containing 2% DMSO to exclude the effect of the solvent used to prepare the stock solutions of the tested complexes. Next, fresh culture medium (100 µL/well) and MTT (1.5 mg/mL, 50 µL/well) were added, and cells were incubated for two hours under the above conditions. MTT was […] blue formazan crystals produced by the metabolically active cells. Finally, the MTT solution was removed and replaced with 100 µL/well of 20% sodium dodecyl sulfate (SDS; Sigma, St. Louis, MO, USA) for 24 h (room temperature) to dissolve the blue formazan. Based on the absorbance (λ = 550 nm) of tested and control cells (100% viability), the percentage of cell viability after exposure was calculated. For each sample, the experiment was performed twice.
For orientation: Tetrazolium dyes change colour on reduction, which living cells bring about.

The IC50 is the point on the concentration scale where inhibition reaches its midpoint. High values mean a need for much substance, low ones inhibition by little substance. For `Cc1cc(C)[n+]2n1C(N)=[S+][Ru-]2[Cl].Cc1ccc(C(C)C)cc1.F[P-](F)(F)(F)(F)F` [Compound 3a], the “Concentration above which cytotoxicity was seen” value is listed as “above 250 μM”; the half-maximal inhibitory concentration (IC50) was 380 µM and > 350 µM.
On to `CCc1cc(CC)[n+]2n1C(N)=[S+][Ru-]2[Cl].Cc1ccc(C(C)C)cc1.F[P-](F)(F)(F)(F)F` [Compound 3b], for which the “Concentration above which cytotoxicity was seen” value is listed as “above 250 μM”; the IC50 is 355 µM and > 350 µM.
For the compound “[(η^6-p-cymene)Ru(1-[amino(thioxo)methyl]-5-hydroxy-3-phenyl-1H-pyrazole)PF6 [Compound 3c]”, the IC50 amounted to 264 µM.
